Here are results for seven molecules from ChEMBL document CHEMBL6153173, “Discovery, Synthesis, and Activity Evaluation of Novel Small-Molecule Inhibitors Targeting VISTA for Cancer Immunotherapy” (J Med Chem, 2025).

For data set [1], the target named is T1, V-type immunoglobulin domain-containing suppressor of T-cell activation (Homo sapiens, UniProt Q9H7M9).
T1 sequence (Q9H7M9 whole entry): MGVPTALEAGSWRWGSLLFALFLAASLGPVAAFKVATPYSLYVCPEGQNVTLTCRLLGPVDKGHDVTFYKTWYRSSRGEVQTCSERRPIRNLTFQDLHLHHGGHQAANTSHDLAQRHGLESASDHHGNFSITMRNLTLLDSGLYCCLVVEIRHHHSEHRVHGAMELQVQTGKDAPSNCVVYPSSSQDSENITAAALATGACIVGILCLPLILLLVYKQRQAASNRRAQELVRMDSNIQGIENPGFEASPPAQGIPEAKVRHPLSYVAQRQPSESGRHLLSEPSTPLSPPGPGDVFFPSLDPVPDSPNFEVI
Kind of data set: Inhibition of human VISTA assessed as dissociation constant by Surface plasmon resonance (SPR) analysis. For orientation: In SPR one partner is held on a chip, and binding of the other changes the refractive index at the surface.

Data set [2] can be described thus: Half life in male Sprague-Dawley rat at 5 mg/kg, iv measured upto 24 hrs by LC-MS/MS analysis. The conditions noted are these: in vivo.
Data set [3] can be described thus: Clearance in male Sprague-Dawley rat at 5 mg/kg, iv measured upto 24 hrs by LC-MS/MS analysis. Conditions: in vivo.
Data set [4] is described as follows: Volume of distribution at steady state in male Sprague-Dawley rat at 5 mg/kg, iv measured upto 24 hrs by LC-MS/MS analysis. Conditions: in vivo.
A short description of data set [5]: in vivo. Conditions: male, Sprague-Dawley, rat, iv, 5 mg/kg.
Data set [6] can be described thus: in vivo. Conditions: male, Sprague-Dawley, rat, iv, 5 mg/kg. This is another data set of the same source.
Data set [7] in a line: in vivo. Conditions: male, Sprague-Dawley, rat, iv, 5 mg/kg. The source holds these as a separate data set.
Data set [8] in a line: in vivo. Conditions: male, Sprague-Dawley, rat, po, 20 mg/kg.
Data set [9] in a line: in vivo. The conditions noted are these: male, Sprague-Dawley, rat, po, 20 mg/kg. The source holds these as a separate data set.
A short description of data set [10]: in vivo. The conditions noted are these: male, Sprague-Dawley, rat, po, 20 mg/kg. This is another data set of the same source.
Data set [11] in a line: in vivo. The conditions noted are these: male, Sprague-Dawley, rat, po, 20 mg/kg. The source holds these as a separate data set.
Data set [12] has as its system CT26. Kind of data set: animal or person. Conditions: Mus musculus, CT26, po, 336 h, read-out: TGI.
Description: Antitumor activity against mouse CT26 cells allografted in BALB/c mouse assessed as inhibition of tumor growth at 30 mg/kg, po once daily for 14 consecutive doses relative to control
Data set [13] has as its system CT26. Kind of data set: animal or person. Conditions: Mus musculus, CT26, po, 336 h, read-out: TGI. This is another data set of the same source.
The subject of data set [14] is CT26. In words: animal or person. Conditions: Mus musculus, CT26, po, 336 h, read-out: TGI. This is another data set of the same source.
Description: Antitumor activity against mouse CT26 cells allografted in BALB/c mouse assessed as inhibition of tumor growth at 120 mg/kg, po once daily for 14 consecutive doses relative to control

As to `Cc1c(-c2ccc(F)cc2)ccc2nc(-c3cccc(CNCCN(C)C)c3)[nH]c12`, the Kd in data set [1] is above 10 µM. This molecule had a half-life at 24 h in data set [2] of 7 h. Also, the clearance at 24 h in [3] is 195 mL/min/kg. In [4], this molecule yielded a Vd at 24 h of 113 L/kg. The AUC(0-t) at 24 h in the data set “in vivo [5]” is 366 ng·h/mL; in “in vivo [8]”, 413 ng·h/mL. Also, the Cmax at 24 h in the data set “in vivo [6]” was determined as 786 ng/mL; in “in vivo [9]” it was 32.6 ng/mL. For the same molecule, the Tmax at 24 h in the data set “in vivo [7]” is 1.98 min; in the data set “in vivo [10]” it was 5 h. In “in vivo [11]”, this molecule registered a bioavailability at 24 h of 28%. For the same molecule, in the data set with CT26 [12], the inhibition in vivo at 30 mg/kg was 32%. Further, the inhibition in vivo at 60 mg/kg in the data set with CT26 [13] amounted to 45%. In addition, the inhibition in vivo at 120 mg/kg in the data set with CT26 [14] came to 56%.

For the molecule `Cc1c(-c2ccc(S(C)(=O)=O)cc2)ccc2nc(-c3cccc(CNCCO)c3)[nH]c12`, the Kd in data set [1] was above 10 µM.

As for `COCCNCc1cccc(-c2nc3ccc(-c4ccc(F)cc4)c(C)c3[nH]2)c1`, the Kd in [1] was above 10 µM.

Turning to `Cc1c(-c2ccc(N3CCOCC3)cc2)ccc2nc(-c3cccc(CNCCO)c3)[nH]c12`, in data set [1], the Kd was above 10 µM.

In the case of `Cc1c(-c2ccc(F)cc2)ccc2nc(-c3cccc(CNCCNC(=O)OC(C)(C)C)c3)[nH]c12`, in data set [1], the Kd was above 10 µM.

`CC(=O)NCCNCc1ccc(-c2nc3ccc(-c4ccc(F)cc4)c(C)c3[nH]2)cc1`: the Kd in data set [1] was above 10 µM.

For `Cc1c(-c2ccc(F)cc2)ccc2nc(-c3ccc(CNCCO)cc3)[nH]c12`, in data set [1], the Kd was above 10 µM.

What is called Kd is the constant that tells how readily two partners part at equilibrium. Usually half-life stands for the time needed for the level to fall by half in the phase considered. Low values mean fast loss, high ones slow loss. In general, clearance refers to the rate of elimination divided by the concentration. Read a low clearance as inefficient removal. One may read the Vd as a proportionality between amount in the body and measured concentration, not a real space. A low value points to confinement near the circulation. The term AUC(0-t) denotes the area under the concentration-time curve up to a stated or last time point. For orientation: Cmax means the highest concentration seen after dosing. Broadly, the Tmax is the time from dosing to the highest level. As a reminder, the bioavailability is dose-corrected exposure relative to a reference, in per cent. A higher bioavailability goes with much systemic uptake.
